Results from patent US4500526A, “Cephalosporin derivatives” (Bristol-Myers Company, priority 1983, dated 1985).
Converted amounts (≈) assume the structure as drawn. Read-outs that look alike come from different tables or passages of the source.

What was measured:
[1] = tested on: Cephalothinresistant E. coli (3 strains) and Kl. pneumoniae (3 strains); test: MIC, two-fold serial agar dilution, group (G-)-Ib; type: cell-based; settings: Escherichia coli, read-out: Geometric Mean of MIC
Method: (§1) In the primary evaluation of the compounds of this invention, the Minimum Inhibitory Concentrations (MIC's) of the compounds were determined by the two-fold serial agar dilution method in Mueller-Hinton agar against 32 strains of test organisms in six groups. The sample weights of the test compounds were adjusted according to the purity of each compound, so as to give a more accurate measure of the MIC's.
(G-)Ib: Cephalothinresistant E. coli (3 strains) and Kl. pneumoniae (3

[2] = tested on: Cephalothinsensitive E. coli (2 strains), Kl. pneumoniae (1 strain) and Pr. mirabilis (2 strains); test: MIC, two-fold serial agar dilution, group (G-)-Ia; type: cell-based; settings: 5 strains, Mueller-Hinton agar, read-out: Geometric Mean of MIC
Method: as §1
(G-)Ia: Cephalothinsensitive E. coli (2 strains), Kl. pneumoniae (1
strain) and Pr. mirabilis (2 strains)

[3] = tested on: M. morganii (1 strain), Ent. cloacae (2 strains) and Ser. marcescens (2 strains); test: MIC, two-fold serial agar dilution, group (G-)-II; type: cell-based; settings: read-out: Geometric Mean of MIC
Method: as §1
(G-)II: M. morganii (1 strain), Ent. cloacae (2 strains) and Ser.

P. aeruginosa A9843 = test: Median protective dose in infected mice; type: in vivo; settings: Pseudomonas aeruginosa, im, immediately after intraperitoneal challenge, read-out: PD50
Method: (§2) The median protective dose (PD50) of some of the preferred compounds against various microorganisms was determined in mice by intramuscular administration of the test compound immediately after an intraperitoneal bacterial challenge.

S. aureus Smith = test: Median protective dose in infected mice; type: in vivo; settings: Staphylococcus aureus, im, immediately after intraperitoneal challenge, read-out: PD50
Method: as §2

E. coli Juhl = test: Median protective dose in infected mice; type: in vivo; settings: Escherichia coli, im, immediately after intraperitoneal challenge, read-out: PD50
Method: as §2

[4] = Mouse blood levels after single intramuscular injection; type: in vivo, mice
Method: The absorption of some of the preferred compounds were determined in mice following a single intramuscular injection of the test compound (dissolved in 0.1M phosphate buffer; pH 7) at a dosage of 20 mg/kg. Blood samples were collected from the orbital sinuses into heparinized capillary tubes and assayed in Nutrient Agar (pH 6.6) using E. coli Ess-22-31 as the test organism. The blood levels at various time intervals, the half-life values (t1/2) and the areas under the curve (AUC) are shown in Table 2.

[5] = tested on: Penicillinresistant S. aureus (5 strains); test: MIC, two-fold serial agar dilution, group (G+)-Ib; type: cell-based; settings: Staphylococcus aureus, read-out: Geometric Mean of MIC
Method: as §1
(G+)Ib: Penicillinresistant S. aureus (5 strains)

[6] = tested on: Ps. aeruginosa (6 strains); test: MIC, two-fold serial agar dilution, group (G-)-III; type: cell-based; settings: Pseudomonas aeruginosa, read-out: Geometric Mean of MIC
Method: as §1
(G-)III: Ps. aeruginosa (6 strains)

[7] = tested on: Penicillinsensitive S. aureus (5 strains); test: MIC, two-fold serial agar dilution, group (G+)-Ia; type: cell-based; settings: Staphylococcus aureus; (G+)-Ia, 5 strains, Mueller-Hinton agar; read-out: Geometric Mean of MIC
Method: as §1
(G+)Ia: Penicillinsensitive S. aureus (5 strains)

[8] = (G+)-Ib, 5 strains, Mueller-Hinton agar
[9] = (G-)-III, 6 strains, Mueller-Hinton agar
[10] = (G-)-II, 5 strains, Mueller-Hinton agar

SMILES	MIC [1] [µg/mL]	MIC [2] [µg/mL]	ED50 (P. aeruginosa A9843) [mg/kg]	ED50 (S. aureus Smith) [mg/kg]	ED50 (E. coli Juhl) [mg/kg]	AUC ([4]; in vivo, im, 20 mg/kg) [ng·h/mL]	concentration at 10 min ([4]; in vivo, im, 20 mg/kg) [ng/mL]	concentration at 20 min ([4]; in vivo, im, 20 mg/kg) [ng/mL]	concentration at 0.5 h ([4]; in vivo, im, 20 mg/kg) [ng/mL]	concentration at 40 min ([4]; in vivo, im, 20 mg/kg) [ng/mL]	concentration at 50 min ([4]; in vivo, im, 20 mg/kg) [ng/mL]	concentration at 1 h ([4]; in vivo, im, 20 mg/kg) [ng/mL]	concentration at 1.5 h ([4]; in vivo, im, 20 mg/kg) [ng/mL]	concentration at 2 h ([4]; in vivo, im, 20 mg/kg) [ng/mL]	half-life ([4]; in vivo, im, 20 mg/kg) [min]	MIC [5, 8] [µg/mL]	MIC [6, 9] [µg/mL]	MIC [7] [µg/mL]	MIC [3, 10] [µg/mL]	other results
C=CCO/N=C(\C(=O)NC1C(=O)N2C(C(=O)[O-])=C(C[n+]3ccc4scnc4c3)CSC12)c1csc(N)n1 (centres unmarked) [Ic, 7-[(Z)-2-Allyloxyimino-2-(2-aminothiazol-4-yl)acetamido]-3-{(5-thiazolo[4,5-c]pyridino)methyl}-3-cephem-4-carboxylate]	0.44 (≈ 0.789 µM)	0.053 (≈ 0.095 µM)	8.6	1.1	0.048	12000	18000	14000	10000	8200	5800	3600	1900	1300	28	0.56 (≈ 1 µM)	3.9 (≈ 6.99 µM)	0.32 (≈ 0.574 µM)		MIC [3]: 0.66 µg/mL (≈ 1.18 µM)
C#CCO/N=C(\C(=O)NC1C(=O)N2C(C(=O)[O-])=C(C[n+]3ccc4sc(N)nc4c3)CS[C@H]12)c1csc(N)n1 (some centres unmarked) [If, 7-[(Z)-2-(2-Aminothiazol-4-yl)-2-(propargyloxyimino)acetamido]-3-(2-amino-5-thiazolo[4,5-c]pyridinio)methyl-3-cephem-4-carboxylate]	0.4 (≈ 0.701 µM)	0.029 (≈ 0.0508 µM)	3.3	0.36	0.013	9100	14000	11000	7300	4200	3600	3300	2000	1200	34		2.1 (≈ 3.68 µM)	0.3 (≈ 0.526 µM)	0.35 (≈ 0.613 µM)	MIC [5]: 0.8 µg/mL (≈ 1.4 µM)
CO/N=C(\C(=O)NC1C(=O)N2C(C(=O)[O-])=C(C[n+]3ccc4sc(SC)nc4c3)CSC12)c1csc(N)n1 (centres unmarked) [Ii, 7-[(Z)-2-(2-Aminothiazol-4-yl)-2-methoxyiminoacetamido]-3-[{5-(2-methylthiothiazolo[4,5-c]pyridinio)}methyl]-3-cephem-4-carboxylate]	0.13 (≈ 0.225 µM)	0.025 (≈ 0.0433 µM)				6800	14000	10000	5900	4800	2400	1500	250	< 100	13			0.23 (≈ 0.398 µM)	0.24 (≈ 0.415 µM)	MIC [5]: 0.2 µg/mL (≈ 0.346 µM); MIC [6]: 5.5 µg/mL (≈ 9.52 µM)
Nc1nc(/C(=N/OC2(C(=O)O)CCC2)C(=O)NC2C(=O)N3C(C(=O)[O-])=C(C[n+]4ccc5sc(N)nc5c4)CS[C@H]23)cs1 (some centres unmarked) [Ik, 7-[(Z)-2-(2-Aminothiazol-4-yl)-2-(1-carboxycyclobut-1-oxyimino)-acetamido]-3-(2-amino-5-thiazolo[4,5-c]pyridinio)methyl-3-cephem-4-carboxylate]	0.36 (≈ 0.571 µM)	0.015 (≈ 0.0238 µM)	5.5	3	0.046		20000	16000	11000	8200	5200	4100	1800	670	22	3.3 (≈ 5.23 µM)	1.4 (≈ 2.22 µM)	1.4 (≈ 2.22 µM)	0.27 (≈ 0.428 µM)	AUC ([4]; blood, mice, 20 mg/kg im, read-out: AUC): 13000 ng·h/mL
Cc1nc2c[n+](CC3=C(C(=O)[O-])N4C(=O)C(NC(=O)/C(=N\OC5(C(=O)O)CCC5)c5csc(N)n5)[C@H]4SC3)ccc2s1 (some centres unmarked) [Im, 7-[(Z)-2-(2-Aminothiazol-4-yl)-2-(1-carboxycyclobut-1-oxyimino)-acetamido]-3-(2-methyl-5-thiazolo[4,5-c]pyridinio)methyl-3-cephem-4-carboxylate]	0.56 (≈ 0.889 µM)	0.027 (≈ 0.0429 µM)	9	9.4	0.1	7100	13000	10000	6900	4800	2700	2000	480	< 200	16	8.8 (≈ 14 µM)		3.4 (≈ 5.4 µM)	0.25 (≈ 0.397 µM)	MIC [6]: 2.5 µg/mL (≈ 3.97 µM)
CO/N=C(\C(=O)NC1C(=O)N2C(C(=O)[O-])=C(C[n+]3ccc4sc(N)nc4c3)CSC12)c1csc(N)n1 (centres unmarked) [In, 7-[(Z)-2-(2-Aminothiazol-4-yl)-2-methoxyiminoacetamido]-3-[{5-(2-aminothiazolo[4,5-c]pyridinio)}methyl]-3-cephem-4-carboxylate]	0.096 (≈ 0.176 µM)	0.01 (≈ 0.0183 µM)	2.8	0.9	< 0.01	11000	14000	14000	7600	7000	4400	3900	2900	1000	29	0.72 (≈ 1.32 µM)	1.9 (≈ 3.48 µM)	0.32 (≈ 0.585 µM)	0.17 (≈ 0.311 µM)	
CO/N=C(\C(=O)NC1C(=O)N2C(C(=O)[O-])=C(C[n+]3ccc4sc(NC(C)=O)nc4c3)CS[C@H]12)c1csc(N)n1 (some centres unmarked) [Ip, 7-[(Z)-2-(2-Aminothiazol-4-yl)-2-methoxyiminoacetamido]-3-(2-acetylamino-5-thiazolo[4,5-c]pyridinio)methyl-3-cephem-4-carboxylate]	0.4 (≈ 0.68 µM)	0.037 (≈ 0.0629 µM)	16	1	0.29	16000	24000	18000	13000	10000	6800	5500	2500	1400	27	0.8 (≈ 1.36 µM)	11 (≈ 18.7 µM)	0.34 (≈ 0.578 µM)	0.68 (≈ 1.16 µM)	
CO/N=C(\C(=O)NC1C(=O)N2C(C(=O)[O-])=C(C[n+]3ccc4sc(NC(=O)CN)nc4c3)CS[C@H]12)c1csc(N)n1 (some centres unmarked) [Iq, 7-[(Z)-2-(2-Aminothiazol-4-yl)-2-methoxyiminoacetamido]-3-(2-glycylamino-5-thiazolo[4,5-c]pyridinio)methyl-3-cephem-4-carboxylate]	0.61 (≈ 1.01 µM)	0.038 (≈ 0.0629 µM)	12	1.8	0.015	16000	15000	17000	12000	11000	9900	8800	3400	1500	28	2.4 (≈ 3.98 µM)	10 (≈ 16.6 µM)	0.92 (≈ 1.52 µM)		MIC [3]: 0.69 µg/mL (≈ 1.14 µM)
CO/N=C(\C(=O)NC1C(=O)N2C(C(=O)[O-])=C(C[n+]3ccc4sc(C(N)=O)nc4c3)CS[C@H]12)c1csc(N)n1 (some centres unmarked) [Ix, 7-[(Z)-2-(2-Aminothiazol-4-yl)-2-methoxyiminoacetamido]-3-(2-carbamoyl-5-thiazolo[4,5-c]pyridinio)methyl-3-cephem-4-carboxylate]	0.2 (≈ 0.348 µM)	0.022 (≈ 0.0383 µM)		1.5	0.013	19000	20000	18000	20000	13000	11000	7000	4200	2100	31	0.8 (≈ 1.39 µM)	2.8 (≈ 4.87 µM)	0.53 (≈ 0.922 µM)	0.39 (≈ 0.679 µM)	
